Measurements reported in ChEMBL document CHEMBL1201862, “PubChem BioAssay data set” (2004).
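Briefly, cells in 96-well plates were exposed to five compound concentrations for 48 h, and endpoints were estimated by linear interpolation. GI50 is the concentration that inhibits growth by half.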 Activity calls are given as the source filed them. Cut-off read from the data, not from the text of the source: active = GI50 up to about 1.1 µM and inactive = higher.

Tests used:
Assay in all cases: NCI tumour cell line growth inhibition, 48 h
HL-60 = test system: HL-60
PC-3 = test system: PC-3
SK-OV-3 = test system: SK-OV-3
A498 = test system: A498
OVCAR-5 = test system: OVCAR-5
T47D = test system: T47D
KM12 = test system: KM12
M14 = test system: M14
SNB-19 = test system: SNB-19
COLO 205 = test system: COLO 205
HOP-62 = test system: HOP-62
UO-31 = test system: UO-31
MCF7 = test system: MCF7
HT-29 = test system: HT-29
OVCAR-4 = test system: OVCAR-4
Hs-578T = test system: Hs-578T
SK-MEL-2 = test system: SK-MEL-2
HCT-116 = test system: HCT-116
OVCAR-8 = test system: OVCAR-8
BT-549 = test system: BT-549

Compound | GI50 (HL-60) | GI50 (PC-3) | GI50 (SK-OV-3) | GI50 (A498) | GI50 (OVCAR-5) | GI50 (T47D) | GI50 (KM12) | GI50 (M14) | GI50 (SNB-19) | GI50 (COLO 205) | GI50 (HOP-62) | GI50 (UO-31) | GI50 (MCF7) | GI50 (HT-29) | GI50 (OVCAR-4) | GI50 (Hs-578T) | GI50 (SK-MEL-2) | GI50 (HCT-116) | GI50 (OVCAR-8) | GI50 (BT-549)
CCOC(=O)C(NC(C)=O)(Nc1ccc(S(N)(=O)=O)cc1)C(F)(F)F (configuration not stated) | > 100 µM (inactive) | > 100 µM (inactive) | > 100 µM (inactive) | > 100 µM (inactive) | > 100 µM (inactive) | > 100 µM (inactive) | 3.58 µM (inactive) | > 100 µM (inactive) | > 100 µM (inactive) | > 100 µM (inactive) | > 100 µM (inactive) | > 100 µM (inactive) | > 100 µM (inactive) | > 100 µM (inactive) | > 100 µM (inactive) | > 100 µM (inactive) | > 100 µM (inactive) | > 100 µM (inactive) | > 100 µM (inactive) | 
C/C=C/C[C@@H](C)C(=O)C1C(=O)N[C@@H](C(C)C)C(=O)N(C)CC(=O)N(C)[C@@H](CC(C)C)C(=O)N[C@@H](C(C)C)C(=O)N(C)[C@@H](CC(C)C)C(=O)N[C@@H](C)C(=O)N[C@@H](C)C(=O)N(C)[C@@H](CC(C)C)C(=O)N(C)[C@@H](CC(C)C)C(=O)N(C)[C@@H](C(C)C)C(=O)N1C (some centres not stated) | 2.8 µM (inactive) | 0.703 µM (active) | > 20.5 µM (inactive) |  | 7.87 µM (inactive) | 3.03 µM (inactive) | 3.67 µM (inactive) | 6.28 µM (inactive) | 14 µM (inactive) |  | 6.47 µM (inactive) | 3.78 µM (inactive) | 3.95 µM (inactive) | 3.8 µM (inactive) | 2.74 µM (inactive) | 6.21 µM (inactive) |  | 3.03 µM (inactive) | 9.82 µM (inactive) | 4.98 µM (inactive)
C/C(=C\CO)CC/C=C(\C)CNc1ccc([N+](=O)[O-])cc1 | 19.6 µM (inactive) | 18 µM (inactive) | > 100 µM (inactive) |  | 41.7 µM (inactive) | 11.6 µM (inactive) | 16.1 µM (inactive) | 62.1 µM (inactive) | 40.3 µM (inactive) | 36.6 µM (inactive) | > 100 µM (inactive) | 7.98 µM (inactive) | 40.6 µM (inactive) | 27.4 µM (inactive) | 2.98 µM (inactive) | 16.6 µM (inactive) | 20.4 µM (inactive) | 93.5 µM (inactive) | 30.8 µM (inactive) | 10.1 µM (inactive)
CC(NC(=O)C(N)CC(=O)O)NC(=O)N1CCOCC1 (configuration not stated) |  | > 100 µM (inactive) | > 100 µM (inactive) | > 100 µM (inactive) | > 100 µM (inactive) |  | > 100 µM (inactive) | > 100 µM (inactive) | > 100 µM (inactive) | > 100 µM (inactive) | > 100 µM (inactive) | > 100 µM (inactive) | > 100 µM (inactive) | > 100 µM (inactive) | > 100 µM (inactive) | > 100 µM (inactive) | > 100 µM (inactive) | > 100 µM (inactive) | > 100 µM (inactive) | > 100 µM (inactive)
C=CCN1C(=O)CC1N(CC=C)S(=O)(=O)c1ccc(C)cc1 (configuration not stated) | > 100 µM (inactive) | > 100 µM (inactive) | > 100 µM (inactive) | > 100 µM (inactive) | > 100 µM (inactive) |  | > 100 µM (inactive) | > 100 µM (inactive) | > 100 µM (inactive) | > 100 µM (inactive) |  | > 100 µM (inactive) | > 100 µM (inactive) | > 100 µM (inactive) | > 100 µM (inactive) | > 100 µM (inactive) |  | > 100 µM (inactive) | > 100 µM (inactive) | > 100 µM (inactive)
CCOC(CN(C)C(=O)Nc1ccc(Cl)c(Cl)c1)OCC | > 10 µM (inactive) | > 10 µM (inactive) | > 10 µM (inactive) | > 10 µM (inactive) |  | > 10 µM (inactive) | > 10 µM (inactive) | > 10 µM (inactive) | > 10 µM (inactive) | > 10 µM (inactive) | > 10 µM (inactive) | > 10 µM (inactive) | > 10 µM (inactive) | > 10 µM (inactive) | > 10 µM (inactive) | > 10 µM (inactive) | > 10 µM (inactive) | > 10 µM (inactive) | > 10 µM (inactive) | 
O=S(=O)(Oc1ccc2ccccc2c1-c1c(OS(=O)(=O)C(F)(F)F)ccc2ccccc12)C(F)(F)F | 11.3 µM (inactive) | 12.7 µM (inactive) | > 100 µM (inactive) | 26.4 µM (inactive) | > 100 µM (inactive) |  | > 100 µM (inactive) | 91.8 µM (inactive) | > 100 µM (inactive) | > 100 µM (inactive) | > 100 µM (inactive) | 37.8 µM (inactive) | > 100 µM (inactive) | 41.9 µM (inactive) | 4.2 µM (inactive) | > 100 µM (inactive) | > 100 µM (inactive) | 9.64 µM (inactive) | > 100 µM (inactive) | > 100 µM (inactive)
